≈ marks a conversion by molar mass, not a printed value.
Assays:
[1] = molecular target: Urease subunit alpha/Urease subunit beta (Helicobacter pylori (strain ATCC 700392 / 26695) (Campylobacterpylori), UniProt P69996); assay: Inhibition of Helicobacter pylori urease; assay type: protein-complex assay
SH-SY5Y = assay: Neuroprotective activity in Homo sapiens (human) SH-SY5Y cells assessed as increase in non amyloidogenic soluble form of amyloid precursor protein secretion at 0.1 to 10 uM after 2 hr by immunoblot analysis relative to control; assay type: functional
PC-12 = assay: Neuroprotective activity in rat PC12 cells assessed as increase in non amyloidogenic soluble form of amyloid precursor protein secretion at 0.1 to 10 uM after 2 hr by immunoblot analysis relative to control; assay type: functional
SK-OV-3 [2] = assay: Downregulation of bax expression in Homo sapiens (human) SKOV3 cells at 25 uM after 48 hr by Western blot analysis relative to control; assay type: functional
[3] = system: Stenotrophomonas maltophilia; assay: Bactericidal activity against Stenotrophomonas maltophilia clinical isolate; assay type: functional
SK-OV-3 [4] = assay: Downregulation of CDK4 expression in Homo sapiens (human) SKOV3 cells at 25 uM after 48 hr by Western blot analysis relative to control; assay type: functional
SK-OV-3 [5] = assay: Downregulation of cyclin D1 expression in Homo sapiens (human) SKOV3 cells at 25 uM after 48 hr by Western blot analysis relative to control; assay type: functional
Dermis [6] = assay: Antioxidant activity in Homo sapiens (human) dermis assessed as inhibition of UV-induced hydrogen peroxide production administered before UV induction at 48 hr by DHR assay; assay type: functional
MDA-MB-468 [7] = assay: Cytotoxicity against ER-negative Homo sapiens (human) MDA-MB-468 cells assessed as inhibition of cell viability at 5 to 80 ug/ml after 24 to 72 hr by MTT assay; assay type: functional
Epidermal microsome = assay: Antioxidant activity in Homo sapiens (human) epidermal microsomal fractions assessed as inhibition of UV-induced lipid peroxidation measured at 6 to 48 hr; assay type: functional; conditions: Skin epidermis, dose or concentration not given here
Dermis [8] = assay: Antioxidant activity in Homo sapiens (human) dermis cytosolic form assessed as inhibition of UV-induced nitric oxide production administered before UV induction at 48 hr by Griess assay; assay type: functional
Skin epidermis [9] = assay: Antioxidant activity in Homo sapiens (human) epidermis assessed as inhibition of UV-induced hydrogen peroxide production administered before UV induction at 48 hr by DHR assay; assay type: functional
SK-OV-3 [10] = assay: Downregulation of Bcl-XL expression in Homo sapiens (human) SKOV3 cells at 25 uM after 48 hr by Western blot analysis relative to control; assay type: functional
SK-OV-3 [11] = assay: Downregulation of retinoblastoma expression in Homo sapiens (human) SKOV3 cells at 25 uM after 48 hr by Western blot analysis relative to control; assay type: functional
[12] = system: Stenotrophomonas maltophilia; assay: Antibacterial activity against Stenotrophomonas maltophilia clinical isolate by broth macrodilution method; assay type: functional
MDA-MB-468 [13] = assay: Cytotoxicity against ER-negative Homo sapiens (human) MDA-MB-468 cells assessed as growth inhibition at 5 to 80 ug/ml after 24 to 72 hr by MTT assay; assay type: functional
[14] = system: Stenotrophomonas maltophilia; assay: Antibacterial activity against Stenotrophomonas maltophilia clinical isolate by agar dilution method; assay type: functional
SK-OV-3 [15] = assay: Downregulation of p21 expression in Homo sapiens (human) SKOV3 cells at 25 uM after 48 hr by Western blot analysis relative to control; assay type: functional
Skin epidermis [16] = assay: Antioxidant activity in Homo sapiens (human) epidermis cytosolic form assessed as inhibition of UV-induced nitric oxide production administered before UV induction at 48 hr by Griess assay; assay type: functional

Sequence of Urease subunit alpha/Urease subunit beta (P69996 whole entry): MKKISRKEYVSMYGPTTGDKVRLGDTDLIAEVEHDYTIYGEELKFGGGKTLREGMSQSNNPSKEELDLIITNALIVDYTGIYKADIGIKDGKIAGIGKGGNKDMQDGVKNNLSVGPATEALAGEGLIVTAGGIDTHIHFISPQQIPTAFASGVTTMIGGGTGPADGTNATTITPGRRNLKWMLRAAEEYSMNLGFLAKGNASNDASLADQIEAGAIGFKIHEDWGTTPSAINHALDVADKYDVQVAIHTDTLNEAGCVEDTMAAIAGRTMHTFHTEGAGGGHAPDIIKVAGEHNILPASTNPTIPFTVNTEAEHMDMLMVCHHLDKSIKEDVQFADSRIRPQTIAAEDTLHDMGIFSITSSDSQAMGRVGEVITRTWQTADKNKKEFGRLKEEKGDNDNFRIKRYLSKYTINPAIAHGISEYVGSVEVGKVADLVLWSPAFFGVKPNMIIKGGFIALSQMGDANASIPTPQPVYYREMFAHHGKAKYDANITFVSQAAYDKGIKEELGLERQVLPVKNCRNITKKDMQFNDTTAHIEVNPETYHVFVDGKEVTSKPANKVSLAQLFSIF
Sequence of Urease subunit alpha/Urease subunit beta (P14916 whole entry, further chain): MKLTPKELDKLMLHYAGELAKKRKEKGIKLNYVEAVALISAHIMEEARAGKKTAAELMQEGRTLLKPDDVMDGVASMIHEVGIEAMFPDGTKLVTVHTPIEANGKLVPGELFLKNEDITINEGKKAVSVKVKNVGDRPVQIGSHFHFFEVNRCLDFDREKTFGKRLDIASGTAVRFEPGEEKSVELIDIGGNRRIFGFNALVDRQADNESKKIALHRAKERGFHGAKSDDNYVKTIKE

`Oc1cc(O)c2c(c1)O[C@H](c1ccc(O)c(O)c1)[C@@H](O)C2` [CATECHIN] was tested, and the IC50 [1] was 44.8 µM.

In the case of `O=C(O[C@@H]1Cc2c(O)cc(O)cc2O[C@@H]1c1cc(O)c(O)c(O)c1)c1cc(O)c(O)c(O)c1` [EPIGALOCATECHIN GALLATE], the “fold change (FC)” value (SH-SY5Y) is reported as 6, the “fold change (FC)” value (PC-12) is reported as 6 and the “fold change (FC)” value (SK-OV-3 [2]) is reported as greater than 2. For the same molecule, the MIC50 [3] was 512 µg/mL (≈ 1120 µM), the MIC90 [3] was 512 µg/mL (≈ 1120 µM) and the “fold change (FC)” value (SK-OV-3 [4]) was greater than 2. The “fold change (FC)” value (SK-OV-3 [5]) was greater than 2, the “inhibition (INH)” value (Dermis [6]) was 30% and the “inhibition (INH)” value (MDA-MB-468 [7]) was 3%. The inhibition (Epidermal microsome) was 41%, the “inhibition (INH)” value (Dermis [8]) was 30% and the “inhibition (INH)” value (Skin epidermis [9]) was 30%. For the same molecule, the “fold change (FC)” value (SK-OV-3 [10]) was greater than 2, the “fold change (FC)” value (SK-OV-3 [11]) was greater than 2 and the MIC50 [12] was 512 µg/mL (≈ 1120 µM). For the same molecule, the MIC90 [12] was 512 µg/mL (≈ 1120 µM), the “growth inhibition (GI)” value (MDA-MB-468 [13]) was 15% and the MIC50 [14] was 256 µg/mL (≈ 558 µM). The MIC90 [14] was 256 µg/mL (≈ 558 µM), the “fold change (FC)” value (SK-OV-3 [15]) was greater than 2 and the “inhibition (INH)” value (Skin epidermis [16]) was 30%.

— ChEMBL document CHEMBL3044535, “Pharmacological profile of green tea and its polyphenols: a review” (Med Chem Res, 2012)
